Test results as given in US20230270148A1, “BITTER BLOCKERS AND RELATED METHODS OF USE” (Conagen Inc., priority 2020, published 2023).

How the values were obtained:
Format in all cases: in vivo
[1] = tested on: peach-flavored energy drink (caffeine, B vitamins); assay: Sensory evaluation: bitterness reduction of a peach-flavored energy drink; conditions: caffeine about 710 mg/l, dosage (ppm) per sample (20 to 50-100 ppm)
Protocol: (§1) The bitterness blocker candidates listed in Table 1 were prepared into a 1% sample solution with propylene glycol and heated to ensure complete solubilization. […] A trained sensory evaluator was asked to estimate the perceived bitterness reduction against the control, as well as to provide comments on how the addition of the individual sample solution modulated the taste and mouth feel profile of the resulting peach-flavored energy drink.

[2] = tested on: full spectrum CBD hemp oil nanoemulsion; assay: Sensory evaluation: bitterness reduction of full spectrum CBD hemp oil; conditions: dosage 50 or 100 ppm per sample
Protocol: as §1, with “solubilization. […] A full spectrum CBD hemp oil was emulsified into a water-soluble nanoemulsion first, to which was added the respective sample solution.” for “solubilization.”, “oil nanoemulsion.” for “peach-flavored energy drink.”

[3] = tested on: THC nanoemulsion; assay: Sensory evaluation: bitterness reduction of THC; conditions: dosage 50 or 100 ppm per sample
Protocol: The bitterness blocker candidates listed in Table 1 were prepared into a 1% sample solution with propylene glycol and heated to ensure complete solubilization. […] THC was first emulsified into a water-soluble nanoemulsion (10 mg THC per serving), to which was added the respective sample solution. A trained sensory evaluator was asked to estimate the perceived bitterness reduction against the control, as well as to provide comments on how the addition of the individual sample solution modulated the taste and mouth feel profile of the resulting nanoemulsion.

## COc1cc([C@@H]2CC(=O)c3c(O)cc(O)cc3O2)ccc1O[C@@H]1O[C@H](CO)[C@@H](O)[C@H](O)[C@H]1O [BB11, Homoeriodictyol 4′-O-glucoside]
[1]
  Estimated % bitterness reduction: 80%
[2]
  Comments: Nice upfront bitterness reduction
  Estimated % bitterness reduction: 60%
[3]; THC nanoemulsion (10 mg THC per serving)
  Estimated % bitterness reduction: 60%
[3]; THC nanoemulsion
  Comments: Nice upfront bitterness reduction
